Measurements as given in publication PMC6321601 (Molecules, 2018).

Legend:
[1] = tested on: HepG-2 human hepatocellular carcinoma cells; experiment: MTT assay, proliferation of HepG-2 cells; assay type: cell-based; conditions: Homo sapiens, HepG2, 72 h incubation, mean of three independent experiments
Method: (§1) HepG-2 human hepatocellular carcinoma cells and L-O2 human normal liver cells were maintained in DMEM culture medium supplemented with 10% FBS at 37 °C under a humidified atmosphere with 5% CO2.
(§2) HepG-2 and L-O2 cells in logarithmic growth phase were seeded into a 96-well plate at 5 × 10^3/well/200 µL. After 12 h, compounds at different concentrations were added and incubated for 72 h at 37 °C, 5% CO2. Then, 20 µL MTT (5 mg/mL) was added into each well and incubated for 4 h. The supernatant was discarded, and the precipitate was dissolved with DMSO. The absorbance of the optical density (OD) at 570 nm was detected using a microplate reader and the IC50 was calculated with GraphPad Prism 5.

[2] = tested on: L-O2 human normal liver cells; experiment: MTT assay, toxicity against L-O2 normal cells; assay type: cell-based; conditions: Homo sapiens, 72 h incubation, mean of three independent experiments
Method: as §1, §2

Structure (SMILES) | IC50 [1] | IC50 [2]
COc1cccc2c1C(=O)c1c(O)c3c(c(O)c1C2=O)C[C@@](O)(C(=O)CO)C[C@@H]3O[C@H]1C[C@H](N)[C@H](O)[C@H](C)O1 [ADR, adriamycin, reference compound] | 0.3 ± 0.05 µM | 41 ± 13 nM
CCC(=O)O[C@@H]1C[C@@]2(C)C3CC=C4C(C[C@H](O)C(=O)C4(C)C)[C@]3(C)C(=O)C[C@]2(C)C1[C@@](C)(O)C(=O)/C=C/C(C)(C)OC(C)=O (stereo partly drawn) [Compound 3a, (2S,9R,13R,14S,16R)-17-((R,E)-6-Acetoxy-2-hydroxy-6-methyl-3-oxohept-4-en-2-yl)-2-hydroxy-4,4,9,13,14-pentamethyl-3,11-dioxo-2,3,4,7,8,9,10,11,12,13,14,15,16,17-tetradecahydro-1H-cyclopenta[a]phenanthren-16-yl propionate] | 1.01 ± 0.04 µM | 1020 ± 580 nM
CC(=O)OC(C)(C)/C=C/C(=O)[C@](C)(O)C1[C@H](OC(=O)C2CCC2)C[C@@]2(C)C3CC=C4C(CC(O)C(=O)C4(C)C)[C@]3(C)C(=O)C[C@]12C (stereo partly drawn) [Compound 3b, (9R,13R,14S,16R)-17-((R,E)-6-Acetoxy-2-hydroxy-6-methyl-3-oxohept-4-en-2-yl)-2-hydroxy-4,4,9,13,14-pentamethyl-3,11-dioxo-2,3,4,7,8,9,10,11,12,13,14,15,16,17-tetradecahydro-1H-cyclopenta[a]phenanthren-16-yl cyclobutanecarboxylate] | 0.54 ± 0.04 µM | 520 ± 80 nM
CC(=O)OC(C)(C)/C=C/C(=O)[C@](C)(O)C1[C@H](OC(=O)C2CCCC2)C[C@@]2(C)C3CC=C4C(C[C@H](O)C(=O)C4(C)C)[C@]3(C)C(=O)C[C@]12C (stereo partly drawn) [Compound 3c, (2S,9R,13R,14S,16R)-17-((R,E)-6-Acetoxy-2-hydroxy-6-methyl-3-oxohept-4-en-2-yl)-2-hydroxy-4,4,9,13,14-pentamethyl-3,11-dioxo-2,3,4,7,8,9,10,11,12,13,14,15,16,17-tetradecahydro-1H-cyclopenta[a]phenanthren-16-yl cyclopentanecarboxylate] | 2.45 ± 1.75 µM | 2370 ± 90 nM
CC(=O)OC(C)(C)/C=C/C(=O)[C@](C)(O)C1[C@H](OC(=O)CCCCNC(=O)OC(C)(C)C)C[C@@]2(C)C3CC=C4C(C[C@H](O)C(=O)C4(C)C)[C@]3(C)C(=O)C[C@]12C (stereo partly drawn) [Compound 3d, (2S,9R,13R,14S,16R)-17-((R,E)-6-Acetoxy-2-hydroxy-6-methyl-3-oxohept-4-en-2-yl)-2-hydroxy-4,4,9,13,14-pentamethyl-3,11-dioxo-2,3,4,7,8,9,10,11,12,13,14,15,16,17-tetradecahydro-1H-cyclopenta[a]phenanthren-16-yl 5-((tert-butoxycarbonyl)amino)pentanoate] | 4.89 ± 0.92 µM | 8010 ± 470 nM
CC(=O)OC(C)(C)/C=C/C(=O)[C@](C)(O)C1[C@H](OC(=O)CCCCN(C)C(=O)OC(C)(C)C)C[C@@]2(C)C3CC=C4C(C[C@H](O)C(=O)C4(C)C)[C@]3(C)C(=O)C[C@]12C (stereo partly drawn) [Compound 3e, (2S,9R,13R,14S,16R)-17-((R,E)-6-Acetoxy-2-hydroxy-6-methyl-3-oxohept-4-en-2-yl)-2-hydroxy-4,4,9,13,14-pentamethyl-3,11-dioxo-2,3,4,7,8,9,10,11,12,13,14,15,16,17-tetradecahydro-1H-cyclopenta[a]phenanthren-16-yl 5-((tert-butoxycarbonyl)(methyl)amino)pentanoate] | 9.28 ± 0.37 µM | 5500 ± 2480 nM
CC(=O)OC(C)(C)/C=C/C(=O)[C@](C)(O)C1[C@H](OC(=O)CCCN(C)C(=O)OC(C)(C)C)C[C@@]2(C)C3CC=C4C(C[C@H](O)C(=O)C4(C)C)[C@]3(C)C(=O)C[C@]12C (stereo partly drawn) [Compound 3f, (2S,9R,13R,14S,16R)-17-((R,E)-6-Acetoxy-2-hydroxy-6-methyl-3-oxohept-4-en-2-yl)-2-hydroxy-4,4,9,13,14-pentamethyl-3,11-dioxo-2,3,4,7,8,9,10,11,12,13,14,15,16,17-tetradecahydro-1H-cyclopenta[a]phenanthren-16-yl 4-((tert-butoxycarbonyl)(methyl)amino)butanoate] | 0.93 ± 0.06 µM | 410 ± 110 nM
CC(=O)OC(C)(C)/C=C/C(=O)[C@](C)(O)C1[C@H](OC(=O)CCc2ccccc2NC(=O)OC(C)(C)C)C[C@@]2(C)C3CC=C4C(C[C@H](O)C(=O)C4(C)C)[C@]3(C)C(=O)C[C@]12C (stereo partly drawn) [Compound 3g, (2S,9R,13R,14S,16R)-17-((R,E)-6-Acetoxy-2-hydroxy-6-methyl-3-oxohept-4-en-2-yl)-2-hydroxy-4,4,9,13,14-pentamethyl-3,11-dioxo-2,3,4,7,8,9,10,11,12,13,14,15,16,17-tetradecahydro-1H-cyclopenta[a]phenanthren-16-yl 3-(2-((tert-butoxycarbonyl)amino)phenyl)propanoate] | 0.22 ± 0.11 µM | 42 ± 1 nM
CC(=O)OC(C)(C)/C=C/C(=O)[C@](C)(O)C1[C@H](OC(=O)c2ccc(C)cc2)C[C@@]2(C)C3CC=C4C(C[C@H](O)C(=O)C4(C)C)[C@]3(C)C(=O)C[C@]12C (stereo partly drawn) [Compound 3h, (2S,9R,13R,14S,16R)-17-((R,E)-6-Acetoxy-2-hydroxy-6-methyl-3-oxohept-4-en-2-yl)-2-hydroxy-4,4,9,13,14-pentamethyl-3,11-dioxo-2,3,4,7,8,9,10,11,12,13,14,15,16,17-tetradecahydro-1H-cyclopenta[a]phenanthren-16-yl 4-methylbenzoate] | 9.62 ± 1.34 µM | 6900 ± 1370 nM
CC(=O)OC(C)(C)/C=C/C(=O)[C@](C)(O)C1[C@H](OC(=O)c2ccc(F)cc2)C[C@@]2(C)C3CC=C4C(C[C@H](O)C(=O)C4(C)C)[C@]3(C)C(=O)C[C@]12C (stereo partly drawn) [Compound 3i, (2S,9R,13R,14S,16R)-17-((R,E)-6-Acetoxy-2-hydroxy-6-methyl-3-oxohept-4-en-2-yl)-2-hydroxy-4,4,9,13,14-pentamethyl-3,11-dioxo-2,3,4,7,8,9,10,11,12,13,14,15,16,17-tetradecahydro-1H-cyclopenta[a]phenanthren-16-yl 4-fluorobenzoate] | 7.42 ± 0.4 µM | 4420 ± 970 nM
CC(=O)OC(C)(C)/C=C/C(=O)[C@](C)(O)C1[C@H](OC(=O)c2ccc(Cl)cc2)C[C@@]2(C)C3CC=C4C(C[C@H](O)C(=O)C4(C)C)[C@]3(C)C(=O)C[C@]12C (stereo partly drawn) [Compound 3j, (2S,9R,13R,14S,16R)-17-((R,E)-6-Acetoxy-2-hydroxy-6-methyl-3-oxohept-4-en-2-yl)-2-hydroxy-4,4,9,13,14-pentamethyl-3,11-dioxo-2,3,4,7,8,9,10,11,12,13,14,15,16,17-tetradecahydro-1H-cyclopenta[a]phenanthren-16-yl 4-chlorobenzoate] | 4.67 ± 0.28 µM | 3570 ± 2580 nM
CC(=O)OC(C)(C)/C=C/C(=O)[C@](C)(O)C1[C@H](OC(=O)c2ccc(Br)cc2)C[C@@]2(C)C3CC=C4C(C[C@H](O)C(=O)C4(C)C)[C@]3(C)C(=O)C[C@]12C (stereo partly drawn) [Compound 3k, (2S,9R,13R,14S,16R)-17-((R,E)-6-Acetoxy-2-hydroxy-6-methyl-3-oxohept-4-en-2-yl)-2-hydroxy-4,4,9,13,14-pentamethyl-3,11-dioxo-2,3,4,7,8,9,10,11,12,13,14,15,16,17-tetradecahydro-1H-cyclopenta[a]phenanthren-16-yl 4-bromobenzoate] | 2.99 ± 2.06 µM | 1930 ± 320 nM
COc1ccc(C(=O)O[C@@H]2C[C@@]3(C)C4CC=C5C(C[C@H](O)C(=O)C5(C)C)[C@]4(C)C(=O)C[C@]3(C)C2[C@@](C)(O)C(=O)/C=C/C(C)(C)OC(C)=O)cc1 (stereo partly drawn) [Compound 3l, (2S,9R,13R,14S,16R)-17-((R,E)-6-Acetoxy-2-hydroxy-6-methyl-3-oxohept-4-en-2-yl)-2-hydroxy-4,4,9,13,14-pentamethyl-3,11-dioxo-2,3,4,7,8,9,10,11,12,13,14,15,16,17-tetradecahydro-1H-cyclopenta[a]phenanthren-16-yl 4-methoxybenzoate] | 3.71 ± 1.69 µM | 2470 ± 470 nM
CC(=O)OC(C)(C)/C=C/C(=O)[C@](C)(O)C1[C@H](OC(=O)c2ccc([N+](=O)[O-])cc2)C[C@@]2(C)C3CC=C4C(C[C@H](O)C(=O)C4(C)C)[C@]3(C)C(=O)C[C@]12C (stereo partly drawn) [Compound 3m, (2S,9R,13R,14S,16R)-17-((R,E)-6-Acetoxy-2-hydroxy-6-methyl-3-oxohept-4-en-2-yl)-2-hydroxy-4,4,9,13,14-pentamethyl-3,11-dioxo-2,3,4,7,8,9,10,11,12,13,14,15,16,17-tetradecahydro-1H-cyclopenta[a]phenanthren-16-yl 4-nitrobenzoate] | 0.92 ± 0.44 µM | 740 ± 150 nM
CC(=O)OC(C)(C)/C=C/C(=O)[C@](C)(O)C1[C@H](OC(=O)c2cccc(F)c2)C[C@@]2(C)C3CC=C4C(C[C@H](O)C(=O)C4(C)C)[C@]3(C)C(=O)C[C@]12C (stereo partly drawn) [Compound 3n, (2S,9R,13R,14S,16R)-17-((R,E)-6-Acetoxy-2-hydroxy-6-methyl-3-oxohept-4-en-2-yl)-2-hydroxy-4,4,9,13,14-pentamethyl-3,11-dioxo-2,3,4,7,8,9,10,11,12,13,14,15,16,17-tetradecahydro-1H-cyclopenta[a]phenanthren-16-yl 3-fluorobenzoate] | 4.05 ± 1.39 µM | 2480 ± 520 nM
CC(=O)OC(C)(C)/C=C/C(=O)[C@](C)(O)C1[C@H](OC(=O)C=Cc2ccccc2)C[C@@]2(C)C3CC=C4C(C[C@H](O)C(=O)C4(C)C)[C@]3(C)C(=O)C[C@]12C (stereo partly drawn) [Compound 3o, (2S,9R,13R,14S,16R)-17-((R,E)-6-Acetoxy-2-hydroxy-6-methyl-3-oxohept-4-en-2-yl)-2-hydroxy-4,4,9,13,14-pentamethyl-3,11-dioxo-2,3,4,7,8,9,10,11,12,13,14,15,16,17-tetradecahydro-1H-cyclopenta[a]phenanthren-16-yl cinnamate] | 3.31 ± 0.24 µM | 9590 ± 2380 nM
